The source of these data is ChEMBL document CHEMBL1131865, “Aminomethyl-2,6-difluorophenols as a novel class of increased lipophilicity GABA(C) receptor antagonists” (Bioorg Med Chem Lett, 1999).

Calls of active or inactive are those of the source. The calls are words filed in the database; no cut-off is given here.

The nature of data set [1]: Partition coefficient (logD). The note with it: octanol/water. The class given is physicochemical.
Data set [2] can be described thus: Dissociation constant was determined. It counts as physicochemical.
Data set [3] addresses Gamma-aminobutyric acid receptor subunit rho-1 (Homo sapiens) (UniProt P24046). Kind of data set: Inhibition of inward current in oocytes expressing human GABA-C receptor rho1 subunit (No inhibition). It counts as cell-based. The note with it: Oocyte.
The target in the next data set is GABA B receptor (Rattus norvegicus, UniProt O88871+Q9Z0U4). Kind of data set: Displacement of [3H]GABA from Gamma-aminobutyric acid type B receptor in rat brain membranes. The class given is cell membranes.
Data set [4] addresses Gamma-aminobutyric acid receptor subunit rho-1 (Homo sapiens) (UniProt P24046). Kind of data set: Inhibition of inward current in oocytes expressing human GABA-C receptor rho1 subunit. The note with it: Oocyte. The class given is cell-based.

Sequence of Gamma-aminobutyric acid receptor subunit rho-1 (Homo sapiens) (P24046 whole entry): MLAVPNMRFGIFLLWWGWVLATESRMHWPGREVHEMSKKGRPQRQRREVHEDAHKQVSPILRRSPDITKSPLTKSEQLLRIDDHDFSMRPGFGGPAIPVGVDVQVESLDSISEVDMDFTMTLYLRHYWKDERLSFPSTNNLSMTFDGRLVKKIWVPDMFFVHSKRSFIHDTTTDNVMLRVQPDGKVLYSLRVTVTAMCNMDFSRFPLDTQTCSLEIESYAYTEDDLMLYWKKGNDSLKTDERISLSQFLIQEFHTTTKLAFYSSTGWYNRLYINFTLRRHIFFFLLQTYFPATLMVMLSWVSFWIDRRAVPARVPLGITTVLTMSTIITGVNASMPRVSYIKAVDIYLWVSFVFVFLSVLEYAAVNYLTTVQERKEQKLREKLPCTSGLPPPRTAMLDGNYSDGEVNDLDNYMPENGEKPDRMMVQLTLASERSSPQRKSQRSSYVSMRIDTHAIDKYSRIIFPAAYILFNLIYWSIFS
Sequence of GABA B receptor (Q9Z0U4 whole entry): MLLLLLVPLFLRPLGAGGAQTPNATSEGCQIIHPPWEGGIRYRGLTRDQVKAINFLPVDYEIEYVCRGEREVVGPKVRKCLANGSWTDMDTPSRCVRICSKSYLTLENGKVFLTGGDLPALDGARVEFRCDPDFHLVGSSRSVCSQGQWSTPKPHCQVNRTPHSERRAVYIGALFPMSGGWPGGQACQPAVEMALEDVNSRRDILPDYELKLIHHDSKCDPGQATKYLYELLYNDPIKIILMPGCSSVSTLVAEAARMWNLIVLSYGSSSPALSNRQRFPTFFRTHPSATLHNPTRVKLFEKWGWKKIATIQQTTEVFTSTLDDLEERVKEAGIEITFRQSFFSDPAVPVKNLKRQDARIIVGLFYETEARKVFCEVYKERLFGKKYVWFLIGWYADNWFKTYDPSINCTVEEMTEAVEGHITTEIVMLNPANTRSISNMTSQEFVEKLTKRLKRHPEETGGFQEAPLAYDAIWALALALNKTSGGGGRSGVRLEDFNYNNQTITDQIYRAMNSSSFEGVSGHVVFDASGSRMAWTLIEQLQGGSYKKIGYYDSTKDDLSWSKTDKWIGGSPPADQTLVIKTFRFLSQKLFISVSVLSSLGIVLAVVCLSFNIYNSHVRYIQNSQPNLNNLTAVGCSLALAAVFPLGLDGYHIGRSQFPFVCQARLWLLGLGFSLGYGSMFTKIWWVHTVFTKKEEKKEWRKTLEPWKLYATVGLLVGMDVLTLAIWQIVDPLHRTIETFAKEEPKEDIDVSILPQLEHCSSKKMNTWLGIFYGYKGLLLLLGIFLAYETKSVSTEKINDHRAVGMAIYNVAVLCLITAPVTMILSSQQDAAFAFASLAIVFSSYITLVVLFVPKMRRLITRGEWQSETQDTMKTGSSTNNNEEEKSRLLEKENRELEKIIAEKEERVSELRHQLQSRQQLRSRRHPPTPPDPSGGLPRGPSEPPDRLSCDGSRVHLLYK
Sequence of GABA B receptor (O88871 whole entry): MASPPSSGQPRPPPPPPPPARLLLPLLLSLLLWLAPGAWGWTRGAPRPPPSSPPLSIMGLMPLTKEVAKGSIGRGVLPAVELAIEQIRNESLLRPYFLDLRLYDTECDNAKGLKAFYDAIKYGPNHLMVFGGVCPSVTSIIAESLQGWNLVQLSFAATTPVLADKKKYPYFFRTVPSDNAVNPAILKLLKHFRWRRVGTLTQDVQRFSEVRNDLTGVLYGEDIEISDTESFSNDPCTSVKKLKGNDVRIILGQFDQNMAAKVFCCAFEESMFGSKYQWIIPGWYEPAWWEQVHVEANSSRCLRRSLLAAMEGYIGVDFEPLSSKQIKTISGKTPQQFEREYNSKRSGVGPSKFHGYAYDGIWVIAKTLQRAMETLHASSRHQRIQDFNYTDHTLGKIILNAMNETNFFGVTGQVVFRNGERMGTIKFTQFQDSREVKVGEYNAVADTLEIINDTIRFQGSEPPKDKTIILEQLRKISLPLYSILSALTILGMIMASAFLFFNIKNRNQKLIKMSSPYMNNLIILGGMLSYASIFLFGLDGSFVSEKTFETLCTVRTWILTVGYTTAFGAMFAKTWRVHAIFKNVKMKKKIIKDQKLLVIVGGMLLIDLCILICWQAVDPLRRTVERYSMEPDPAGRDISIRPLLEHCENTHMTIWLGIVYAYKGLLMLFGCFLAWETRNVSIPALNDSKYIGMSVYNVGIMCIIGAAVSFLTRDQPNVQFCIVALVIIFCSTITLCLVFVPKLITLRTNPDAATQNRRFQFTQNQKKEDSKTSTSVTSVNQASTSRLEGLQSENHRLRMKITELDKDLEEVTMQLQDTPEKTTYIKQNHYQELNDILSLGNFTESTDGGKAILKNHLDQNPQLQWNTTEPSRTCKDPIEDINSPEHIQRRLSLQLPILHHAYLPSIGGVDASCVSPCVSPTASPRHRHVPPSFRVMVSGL

`NCCCC(=O)O` [GAMMA-AMINOBUTYRIC ACID] showed a logD in data set [1] of -3.1.
Same read-out and setting: the result for `CP(=O)(O)C1=CCNCC1` reads -3.7.
For `NCc1ccc(F)c(O)c1F`, the pKa in data set [2] turned out to be 6.52. For the same molecule, in data set [1], the logD is -1.7. Also, the Kb result in data set [3] was “inactive”. In addition, on GABA B receptor, the half-maximal inhibitory concentration (IC50) was above 1000 µM.
As for `NCc1cc(F)c(O)c(F)c1`, in data set [2], the pKa was 6.98. The same molecule returned a logD in data set [1] of -1.7. In data set [3], this molecule gave a Kb of 75.5 µM. Besides, the concentration for half-maximal inhibition (IC50) at GABA B receptor is above 1000 µM. Moreover, the Log KB in data set [4] was -4.12.
